Data as given in patent EP4806891A1 (Kangbaida (Sichuan) Biotechnology Co., Ltd., priority 2023, dated 2025).

biological target: T1, HEK-Blue-hTLR8 cells (Homo sapiens, UniProt Q9NR97); assay: HEK-Blue-hTLR8 cell inhibition assay; format: cell-based; details: R848 3 µM, 16 h, OD 620 nm, read-out: TLR8 IC50
T1 construct: expressed in transfected cells; host or cells: HEK-Blue-hTLR8 cells (HEK293-derived reporter line)
T1 sequence (Q9NR97 27-1041): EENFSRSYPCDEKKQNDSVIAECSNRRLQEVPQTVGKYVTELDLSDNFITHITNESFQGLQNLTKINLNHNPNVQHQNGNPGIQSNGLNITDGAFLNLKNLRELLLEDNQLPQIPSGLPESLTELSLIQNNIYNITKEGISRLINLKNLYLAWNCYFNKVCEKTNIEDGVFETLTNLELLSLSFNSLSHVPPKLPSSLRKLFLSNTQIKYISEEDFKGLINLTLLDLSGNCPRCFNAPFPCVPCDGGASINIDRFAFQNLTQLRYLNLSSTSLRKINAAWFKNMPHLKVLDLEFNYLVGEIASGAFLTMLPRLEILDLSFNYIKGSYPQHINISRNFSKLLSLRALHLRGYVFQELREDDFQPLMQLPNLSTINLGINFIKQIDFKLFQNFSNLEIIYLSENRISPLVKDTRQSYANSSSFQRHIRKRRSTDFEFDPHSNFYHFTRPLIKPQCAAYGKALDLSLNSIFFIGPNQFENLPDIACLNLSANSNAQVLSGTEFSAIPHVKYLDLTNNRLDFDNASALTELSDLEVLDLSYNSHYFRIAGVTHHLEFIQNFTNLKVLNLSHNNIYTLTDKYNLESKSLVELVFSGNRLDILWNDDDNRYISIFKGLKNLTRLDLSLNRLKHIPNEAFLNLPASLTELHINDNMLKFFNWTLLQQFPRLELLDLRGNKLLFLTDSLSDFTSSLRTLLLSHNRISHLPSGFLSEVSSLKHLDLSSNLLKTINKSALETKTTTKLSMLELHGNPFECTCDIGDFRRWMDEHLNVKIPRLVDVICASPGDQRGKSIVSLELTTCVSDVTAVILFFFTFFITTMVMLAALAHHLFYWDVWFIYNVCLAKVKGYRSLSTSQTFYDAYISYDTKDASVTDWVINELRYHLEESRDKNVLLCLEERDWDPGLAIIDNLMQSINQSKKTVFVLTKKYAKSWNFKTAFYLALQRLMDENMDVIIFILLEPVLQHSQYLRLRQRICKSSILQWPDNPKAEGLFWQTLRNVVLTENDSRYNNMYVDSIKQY
Method in brief: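 Cells were pre-incubated 4 h, then co-treated 16 h at 37 °C with compound (10 doses, 0.5–10000 nM final) plus R848 (0.8 µM for TLR7, 3 µM for TLR8) or ODN2006 (1 µM, TLR9). Reporter OD620 gave inhibition relative to DMSO blank and agonist-only controls; IC50 came from curve fitting.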

Compound | IC50
NC12CCC(c3nnc([C@]45CN(c6ccc(C(F)(F)F)c7ncccc67)C[C@@]4(C(F)(F)F)C5)o3)(CC1)CC2 [Compound 81, 4-(5-((1S,5R)-5-(trifluoromethyl)-3-(8-(trifluoromethyl)quinolin-5-yl)-3-azabicyclo[3.1.0]hexan-1-yl)-1,3,4-oxadiazol-2-yl)bicyclo[2.2.2]octan-1-amine] | < 0.1 µM
N#Cc1ccc(N2C[C@]3(c4nnc(N5CCOCC5)o4)C[C@]3(C(F)(F)F)C2)c2cccnc12 [Compound 27, 5-((1S,5R)-1-(5-morpholino-1,3,4-oxadiazol-2-yl)-5-(trifluoromethyl)-3-azabicyclo[3.1.0]hexan-3-yl)quinoline-8-carbonitrile] | < 1 µM
CN1CCC(Oc2nnc([C@]34CN(c5ccc(C(F)(F)F)c6ncccc56)C[C@@]3(C(F)(F)F)C4)o2)CC1 [Compound 92, 2-((1-methylpiperidin-4-yl)oxy)-5-((1S,5R)-5-(trifluoromethyl)-3-(8-(trifluoromethyl)quinolin-5-yl)-3-azabicyclo[3.1.0]hexan-1-yl)-1,3,4-oxadiazole] | < 0.1 µM
CN1CCC(c2nnc([C@]34CN(c5ccc(C(F)(F)F)n6nccc56)C[C@@]3(C(F)(F)F)C4)o2)CC1 [Compound 87, 2-(1-methylpiperidin-4-yl)-5-((1S,5R)-5-(trifluoromethyl)-3-(7-(trifluoromethyl)pyrazolo[1,5-a]pyridin-4-yl)-3-azabicyclo[3.1.0]hexan-1-yl)-1,3,4-oxadiazole] | < 1 µM
FC(F)(F)c1ccc(N2C[C@]3(c4nnc(C5CCNCC5)o4)C[C@]3(C(F)(F)F)C2)c2cccnc12 [Compound 75, 2-(piperidin-4-yl)-5-((1S,5R)-5-(trifluoromethyl)-3-(8-(trifluoromethyl)quinolin-5-yl)-3-azabicyclo[3.1.0]hexan-1-yl)-1,3,4-oxadiazole] | < 0.1 µM
N#Cc1ccc(N2C[C@]3(c4nnc(C5(F)CCNCC5)o4)C[C@]3(C(F)(F)F)C2)c2cccnc12 [Compound 60, 5-((1S,5R)-1-(5-(4-fluoropiperidin-4-yl)-1,3,4-oxadiazol-2-yl)-5-(trifluoromethyl)-3-azabicyclo[3.1.0]hexan-3-yl)quinoline-8-carbonitrile] | < 0.1 µM
CN1CCC(c2nnc([C@]34CN(c5ccc(C#N)n6ncc(F)c56)C[C@@]3(C(F)(F)F)C4)o2)CC1 [Compound 57, 3-fluoro-4-((1S,5R)-1-(5-(1-methylpiperidin-4-yl)-1,3,4-oxadiazol-2-yl)-5-(trifluoromethyl)-3-azabicyclo[3.1.0]hexan-3-yl)pyrazolo[1,5-a]pyridine-7-carbonitrile] | < 0.1 µM

Next, values leading:

IC50 | Compound
> 1 µM | Cn1c(CN2CCCC2)nnc1[C@]12CN(c3ccc(C#N)c4ncccc34)C[C@@]1(C(F)(F)F)C2 [Compound 44, 5-((1S,5R)-1-(4-methyl-5-(pyrrolidin-1-ylmethyl)-4H-1,2,4-triazol-3-yl)-5-(trifluoromethyl)-3-azabicyclo[3.1.0]hexan-3-yl)quinoline-8-carbonitrile]
> 1 µM | CN1CCC(c2nnc([C@]34CN(c5ccc(C#N)n6ncc(Br)c56)C[C@@]3(C(F)(F)F)C4)o2)CC1 [Compound 83, 3-bromo-4-((1S,5R)-1-(5-(1-methylpiperidin-4-yl)-1,3,4-oxadiazol-2-yl)-5-(trifluoromethyl)-3-azabicyclo[3.1.0]hexan-3-yl)pyrazolo[1,5-a]pyridine-7-carbonitrile]
< 0.1 µM | CN1CCC(n2cnc([C@]34CN(c5ccc(C#N)c6ncccc56)C[C@@]3(C(F)(F)F)C4)n2)CC1 [Compound 23, 5-((1S,5R)-1-(1-(1-methylpiperidin-4-yl)-1H-1,2,4-triazol-3-yl)-5-(trifluoromethyl)-3-azabicyclo[3.1.0]hexan-3-yl)quinoline-8-carbonitrile]
< 0.1 µM | CN1CCC(Nc2nnc([C@]34CN(c5ccc(C#N)c6ncccc56)C[C@@]3(C(F)(F)F)C4)o2)CC1 [Compound 6, 5-((1S,5R)-1-(5-((1-methylpiperidin-4-yl)amino)-1,3,4-oxadiazol-2-yl)-5-(trifluoromethyl)-3-azabicyclo[3.1.0]hexan-3-yl)quinoline-8-carbonitrile]
